Experimental data as given in US20230391775A1, “SUBSTITUTED DIARYLAMINE COMPOUND, PHARMACEUTICAL COMPOSITION THEREOF, PREPARATION METHOD THEREFOR, AND USE THEREOF” (SUZHOU YABAO PHARMACEUTICAL R&D CO., LTD., priority 2020, published 2023).

Assays:
[1] = Drug tissue distribution assay: brain tissue pharmacokinetics / blood-brain barrier permeability; type: in vivo; details: mice, single oral intragastric 30 mg/kg
Experimental: (§1) Test sample: compound 4, purity 99%
(§2) Preparation of test sample: 22.73 mg of compound 4 was weighed and placed in a mortar (according to the purity of 99%), and a small amount of 0.5% CMC-Na was added followed by full grinding. The mixture was then transferred to a container; the mortar was washed for 4 times; the washing solution was transferred to the container, followed by the addition of 0.5% CMC-Na until the volume of the reaction solution was 30 mL; and then a test sample suspension with a concentration of […] was prepared. The suspension was stirred with a magnetic stirrer at a rotation speed of 1200 rpm for at least 15 min prior to sampling for analysis and administration, with fresh preparation just prior to use.
(§3) Route of administration: oral intragastric administration
(§4) Frequency and dose of administration: single administration at 30 mg/kg (40 mL/kg)
(§5) After drug administration, 0.4 mL of blood was collected from the heart of each group of animals at corresponding time points of 0.25 h, 0.5 h, 1 h, 2 h, 4 h, 6 h, 8 h, and 24 h, respectively, the animals were anesthetized by intraperitoneal injection of 50 mg/kg Zoletil, and then put to death by bleeding. The brain, lung, and kidney of each animal were taken out, washed with normal saline, dried off with filter paper, and put into a cryopreservation tube. The cryopreservation tube was temporarily placed in dry ice, and stored at −60° C. or below for 12 h.
(§6) The collected blood was anticoagulated with EDTA-K2, then temporarily placed in wet ice, and then centrifuged for 10 min at 4° C. and at 2600 g within 2 h. The plasma was temporarily placed in dry ice, and stored in a refrigerator at −60° C. or below within 14 h.
(§7) Analytical method: The drug concentrations in plasma and brain tissue were measured by the following LC-MS/MS method. • Instrument: Shimadzu LC-MS/MS (Model: LCMS-8060); • Chromatographic column: GL Sciences Inc., InertSustain, C18, 3 μm, 2.1×50 mm; • Ion detection: positive ion mode, m/z 453.10/338.05; • Mobile phase A: aqueous solution containing 0.1% TFA; mobile phase B: methanol solution containing 0.1% TFA;
(§8) Pharmacokinetic parameter evaluation index: pharmacokinetic parameters were calculated in a non-compartmental model using WinNonlin 6.4.

[2] = Drug tissue distribution assay: plasma pharmacokinetics; type: in vivo; details: mice, single oral intragastric 30 mg/kg
Experimental: as §1, §2, §3, §4, §5, §6, §7, §8

LRRK2 G2019S = LRRK2 G2019S (Homo sapiens (Human), UniProt Q5S007, G2019S); test: Adapta kinase assay (LRRK2_IC50 assay); type: biochemical; details: Adapta TR-FRET, 1 h, room temperature
Experimental: In the Adapta™ kinase assay method (LRRK2_IC50 assay): the kinase reaction buffer contained kinase buffer S (Life Technologies, PV5213) and 2 mM DTT (Life Technologies, P2325). The kinases LRRK2 G2019S protein (PV4881) and ERM (LRRKtide, PV5093) were derived from Life Technologies. The Adapta™ universal kinase assay kit (Life Technologies, PV5099) contained the following components: Adapta™ Eu-anti-ADP antibody (PV5097; 4 μg); 10 μM AlexaFluor®647 ADP tracer (PV5098; 200 pmol); TR-FRET dilution buffer (PV3574; 100 mL); kinase quench buffer (P2825; 1 mL); 10 mM ATP (PV3227; 500 μL); and 10 mM ADP (PV5096; 500 μL). LRRK2-IN-1 (1234480-84-2, HY-10875) was derived from MedChem Express.
Adapta™ Kinase Assay Method
Adapta® universal kinase assay method is a uniform fluorescence-based immunoassay for detecting ADP. In contrast to ATP consumption assay, Adapta® assay method was very sensitive to ADP formation, with most signal changes occurring when initially 10-20% ATP was converted to ADP. This made Adapta® universal kinase assay method very suitable for low-activity kinases.
All assays were performed at room temperature (about 21° C.) and were linearly related to time and enzyme concentration under the conditions used. 1× kinase reaction buffer was prepared from 5× kinase buffer S stock solution (listed above), and 10 mL of 1× kinase reaction buffer was prepared by the addition of 2 mL of 5× stock solution to 8 mL of H2O. To the 1× kinase reaction buffer was added 20 μL of 1 M DTT.
A kinase reaction was performed in a low-volume 384-well plate in a volume of 10 μL. Typically, a Greiner plate was used (Catalog #3674 #, low volume, white wall, 784075). Other untreated assay plates that were not tested could also be suitable. The substrate concentration in the assay was 100 μM, and the 1× kinase reaction buffer consisted of 50 mM Tris-HCl (pH 8.5), 10 mM MgCl2, 1 mM EGTA, 0.01% Brij-35 and 2 mM DTT, as well as any other additives that could be necessary for the particular kinase. The kinase reaction was allowed to proceed for 1 h at room temperature, followed by the addition of a formulation of kinase quenching buffer (EDTA; 30 mM), Eu-labeled antibody (6 nM), and tracer (18.9 nM) in TR-FRET dilution buffer (5 μL). The final concentration of the antibody in the assay wells was 2 nM, the final concentration of the tracer was 6.3 nM, and the final concentration of EDTA was 10 mM. The plate was allowed to equilibrate at room temperature for at least 30 min and then read on a plate reader configured for Adapta™ TR-FRET.
The data provided in this document were generated by using BMG LABTECH PHERAstar plate reader and using appropriate filters and instrument settings for Adapta™. Test compounds were screened in wells with 1% DMSO (final). For 8-point titration, a 5-fold serial dilution was made on the basis of a starting concentration.

LRRK2 G2019S, sequence (Q5S007 whole entry G2019S): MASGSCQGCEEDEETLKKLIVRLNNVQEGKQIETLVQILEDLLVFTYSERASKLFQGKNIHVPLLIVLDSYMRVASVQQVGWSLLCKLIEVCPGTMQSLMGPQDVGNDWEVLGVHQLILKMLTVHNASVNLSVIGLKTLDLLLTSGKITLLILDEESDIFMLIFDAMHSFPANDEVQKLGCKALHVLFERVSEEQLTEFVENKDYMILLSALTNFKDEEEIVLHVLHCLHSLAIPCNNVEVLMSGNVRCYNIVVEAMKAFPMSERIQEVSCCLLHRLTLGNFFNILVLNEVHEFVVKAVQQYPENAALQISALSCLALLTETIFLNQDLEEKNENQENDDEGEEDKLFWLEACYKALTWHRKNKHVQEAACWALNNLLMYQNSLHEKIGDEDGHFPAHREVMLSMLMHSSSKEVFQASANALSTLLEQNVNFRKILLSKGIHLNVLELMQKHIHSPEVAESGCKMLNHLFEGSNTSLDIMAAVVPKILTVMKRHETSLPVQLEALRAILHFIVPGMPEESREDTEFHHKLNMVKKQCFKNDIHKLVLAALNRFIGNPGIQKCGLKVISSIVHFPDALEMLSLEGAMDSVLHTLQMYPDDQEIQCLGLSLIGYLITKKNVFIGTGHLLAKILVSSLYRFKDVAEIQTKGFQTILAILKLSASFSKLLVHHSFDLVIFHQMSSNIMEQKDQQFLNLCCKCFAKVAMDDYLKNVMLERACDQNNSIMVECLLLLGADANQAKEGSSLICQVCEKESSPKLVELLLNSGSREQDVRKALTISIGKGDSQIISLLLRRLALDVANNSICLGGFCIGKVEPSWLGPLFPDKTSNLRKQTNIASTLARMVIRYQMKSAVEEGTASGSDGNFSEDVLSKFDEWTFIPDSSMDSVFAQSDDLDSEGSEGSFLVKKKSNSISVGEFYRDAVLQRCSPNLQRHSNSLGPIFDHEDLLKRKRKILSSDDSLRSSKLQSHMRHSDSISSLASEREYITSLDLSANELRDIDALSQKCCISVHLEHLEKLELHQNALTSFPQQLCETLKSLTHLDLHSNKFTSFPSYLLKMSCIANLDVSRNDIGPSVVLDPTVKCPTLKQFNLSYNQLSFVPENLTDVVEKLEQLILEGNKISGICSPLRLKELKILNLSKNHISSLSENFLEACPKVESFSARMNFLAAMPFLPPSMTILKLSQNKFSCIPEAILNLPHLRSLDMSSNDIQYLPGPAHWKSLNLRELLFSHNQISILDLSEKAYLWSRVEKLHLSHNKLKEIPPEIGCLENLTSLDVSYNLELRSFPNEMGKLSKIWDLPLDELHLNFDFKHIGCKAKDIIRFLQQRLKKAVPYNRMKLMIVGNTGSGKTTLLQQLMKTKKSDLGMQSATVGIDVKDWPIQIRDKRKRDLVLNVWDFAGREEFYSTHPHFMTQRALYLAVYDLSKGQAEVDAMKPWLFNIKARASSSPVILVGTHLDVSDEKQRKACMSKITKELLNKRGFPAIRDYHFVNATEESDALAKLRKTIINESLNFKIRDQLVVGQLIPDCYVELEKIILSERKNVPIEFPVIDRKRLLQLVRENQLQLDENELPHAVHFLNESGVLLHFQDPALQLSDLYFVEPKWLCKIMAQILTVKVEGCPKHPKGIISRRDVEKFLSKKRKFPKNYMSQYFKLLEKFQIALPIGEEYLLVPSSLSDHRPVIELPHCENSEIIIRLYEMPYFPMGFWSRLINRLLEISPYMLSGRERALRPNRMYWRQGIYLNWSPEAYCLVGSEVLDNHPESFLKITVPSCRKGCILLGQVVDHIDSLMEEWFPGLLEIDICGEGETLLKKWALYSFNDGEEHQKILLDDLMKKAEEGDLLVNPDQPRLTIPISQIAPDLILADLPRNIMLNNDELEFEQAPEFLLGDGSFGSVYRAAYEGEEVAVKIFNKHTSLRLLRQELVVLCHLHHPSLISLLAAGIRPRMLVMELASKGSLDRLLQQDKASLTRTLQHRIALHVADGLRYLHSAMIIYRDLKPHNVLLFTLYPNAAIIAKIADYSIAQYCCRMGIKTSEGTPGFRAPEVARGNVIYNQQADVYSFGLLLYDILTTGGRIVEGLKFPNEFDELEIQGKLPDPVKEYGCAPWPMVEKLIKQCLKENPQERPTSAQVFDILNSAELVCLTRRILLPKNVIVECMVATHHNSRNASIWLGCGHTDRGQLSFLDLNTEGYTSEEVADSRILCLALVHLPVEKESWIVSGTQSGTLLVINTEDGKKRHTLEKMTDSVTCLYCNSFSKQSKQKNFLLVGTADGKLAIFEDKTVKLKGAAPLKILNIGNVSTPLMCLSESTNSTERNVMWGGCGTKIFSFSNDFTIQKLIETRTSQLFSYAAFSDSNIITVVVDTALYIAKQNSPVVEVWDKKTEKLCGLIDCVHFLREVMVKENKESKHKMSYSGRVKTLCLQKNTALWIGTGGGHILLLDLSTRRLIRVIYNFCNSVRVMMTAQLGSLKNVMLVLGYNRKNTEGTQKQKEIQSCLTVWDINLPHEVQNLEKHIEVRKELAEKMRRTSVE

CCOc1nc(Nc2ccc(C(N3CCOCC3)C(F)(F)F)cc2OC)nc2[nH]ccc12 (single isomer, unassigned) [Compound 4, 4-ethoxy-N-(2-methoxy-4-(2,2,2-trifluoro-1-morpholinoethyl)phenyl)-7H-pyrrolo[2,3-d]pyrimidin-2-amine]
AUC0-t ([1]; brain tissue): 6457 ng · h · g^−l | AUC0-∞ ([1]; brain tissue): 7409 ng · h · g^−l | Cmax ([1]; brain tissue): 1898 ng · g^−l | blood-brain barrier permeability ([1]; result in words): excellent blood-brain barrier permeability | Kp ([1]; mouse, brain / plasma, read-out: AUCbrain/AUCplasma): ~2 | Tmax ([1]; mouse, brain tissue): 1 h | AUC0-t [2]: 3248 ng · h · mL^−l | AUC0-∞ [2]: 3257 ng · h · mL^−l | Cmax [2]: 597 ng · mL^−l | Kel [2]: 0.247 h^−l | CL/F ([2]; mouse): 154 mL/min/kg | Tmax ([2]; mouse): 1 h | half-life ([2]; mouse): 2.8 h | MRT last ([2]; mouse, read-out: MRT0-t): 4.5 h | MRT inf ([2]; mouse, read-out: MRT0-∞): 4.56 h | Vd/F ([2]; mouse, read-out: Vz/F): 37.3 L/kg | IC50 (LRRK2 G2019S): 0.017 µM
